Strand notation (5' to 3'): a small letter for the sugar, then the base; units joined by * are phosphorothioate-linked, units joined directly phosphodiester-linked; [ ] holds rarer units or linkages, { } end groups; capitals alone tell only the bases. e = 2'-O-(2-methoxyethyl) (MOE); k = constrained ethyl (cEt); [5mC] = 5-methylcytosine; d = 2'-deoxy (DNA)
Key:
human PKK mRNA [1] = assay: Dose-dependent antisense inhibition of human PKK in HepaRG cells, 0.11-3.00 uM (Example 6); format: cell-based; conditions: for IC50: 0.11-3.00 μM; for percent inhibition of PKK mRNA, 0.11 μM / percent inhibition of PKK mRNA, 0.33 μM / percent inhibition of PKK mRNA, 1.00 μM / percent inhibition of PKK mRNA, 3.00 μM: electroporation, approx. 16 hours, relative to untreated control cells
Method: Cells were plated at a density of 20,000 cells per well and transfected using electroporation with 0.11 μM, 0.33 μM, 1.00 μM, and 3.00 μM concentrations of antisense oligonucleotide. After a treatment period of approximately 16 hours, RNA was isolated from the cells and PKK mRNA levels were measured by quantitative real-time PCR. Human PKK primer probe set RTS3454 was used to measure mRNA levels. PKK mRNA levels were adjusted according to total RNA content, as measured by RIBOGREEN®. The antisense oligonucleotides were tested in a series of experiments that had similar culture conditions.
The half maximal inhibitory concentration (IC50) of each oligonucleotide is also presented.

human PKK mRNA [2] = assay: Antisense inhibition of human PKK mRNA in HepaRG cells, 1,000 nM, MOE/deoxy/cEt oligonucleotides (Example 3); format: cell-based; conditions: HepaRG cells, electroporation with 1,000 nM antisense oligonucleotide
Outline: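 Readout is percent PKK mRNA reduction against untreated controls, by real-time PCR (RTS3454) adjusted for total RNA via RIBOGREEN. Oligonucleotides, phosphorothioate gapmers of 16 nucleosides with cEt, MOE and deoxy sugars, were delivered at 1,000 nM by electroporation to 20,000 HepaRG cells/well for roughly 24 h.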

[3] = approximately 24 hours, primer probe set RTS3454, relative to untreated control cells, experiment of Table 23
[4] = approximately 24 hours, primer probe set RTS3454, relative to untreated control cells, experiment of Table 24

Row | Substance | IC50 (human PKK mRNA [1]) | percent inhibition of PKK mRNA, 0.11 μM (human PKK mRNA [1]) | percent inhibition of PKK mRNA, 0.33 μM (human PKK mRNA [1]) | percent inhibition of PKK mRNA, 1.00 μM (human PKK mRNA [1]) | % inhibition (human PKK mRNA [2]; Table 20, approximately 24 hours, PKK mRNA by RT-PCR (RTS3454), relative to untreated control cells) | % inhibition (human PKK mRNA [2]; Table 22 experiment, approx. 24 hours, PKK mRNA by RT-PCR (RTS3454), relative to untreated control cells) | percent inhibition of PKK mRNA, 3.00 μM (human PKK mRNA [1]) | % inhibition (human PKK mRNA [2]; [3]) | % inhibition (human PKK mRNA [2]; [4])
1 | 547877 (antisense eA*eA*k[5mC]*dA*d[5mC]*dT*dG*d[5mC]*dT*dA*dA*d[5mC]*d[5mC]*kT*kT*eA) [compound 547877] | 200 nM | 29% | 66% | 83% | 81% | 93% |  |  | 
2 | 547922 (eT*eG*kG*dA*dG*dT*dG*dA*dG*dA*dA*d[5mC]*d[5mC]*k[5mC]*kT*eG; antisense) [compound 547922] |  | 67% | 75% | 81% |  |  | 92% | 79% | 
3 | 547942 (eG*eG*kT*dG*dT*dG*d[5mC]*d[5mC]*dA*d[5mC]*dT*dT*dT*k[5mC]*kA*eG; antisense) [compound 547942] | 300 nM | 25% | 51% | 91% |  |  |  | 85% | 
4 | 547943 (eT*eG*kG*dT*dG*dT*dG*d[5mC]*d[5mC]*dA*d[5mC]*dT*dT*kT*k[5mC]*eA; antisense) [compound 547943] | 200 nM | 33% | 70% | 87% |  |  | 90% | 83% | 
5 | 547946 (eG*eA*kA*d[5mC]*dT*dT*dG*dG*dT*dG*dT*dG*d[5mC]*k[5mC]*kA*e[5mC]; antisense) [compound 547946] | 500 nM | 0% | 47% | 74% |  |  |  | 81% | 
6 | 547947 (eG*eG*kA*dA*d[5mC]*dT*dT*dG*dG*dT*dG*dT*dG*k[5mC]*k[5mC]*eA; antisense) [compound 547947] | 300 nM | 24% | 58% | 81% |  |  | 93% | 80% | 
7 | 547948 (eA*eG*kG*dA*dA*d[5mC]*dT*dT*dG*dG*dT*dG*dT*kG*k[5mC]*e[5mC]; antisense) [compound 547948] |  | 60% | 80% | 88% |  |  | 97% | 77% | 
8 | 547979 (antisense eG*eT*k[5mC]*dT*d[5mC]*dT*dT*dG*dG*d[5mC]*dA*dA*dA*k[5mC]*kA*eT) [compound 547979] |  | 56% | 58% | 94% |  |  | 97% | 77% | 
9 | 547997 (antisense eT*eT*kG*dT*dG*dT*d[5mC]*d[5mC]*d[5mC]*dA*dT*dA*d[5mC]*kG*k[5mC]*eA) [compound 547997] | 200 nM | 39% | 68% |  |  |  | 82% |  | 89%
10 | 547998 (antisense e[5mC]*eT*kT*dG*dT*dG*dT*d[5mC]*d[5mC]*d[5mC]*dA*dT*dA*k[5mC]*kG*e[5mC]) [compound 547998] |  | 55% | 73% | 91% |  |  | 91% |  | 82%

From patent US11840686B2, “Modulation of prekallikrein (PKK) expression” (Ionis Pharmaceuticals, Inc., priority 2013, dated 2023)
